Test results: patent US20100197765A1, “METHOD FOR PROMOTING THE EXPRESSION OF P53, AND P53 EXPRESSION PROMOTER FOR USE IN THE METHOD” (THE UNIVERSITY OF TOKUSHIMA, priority 2007, published 2010)

How the values were obtained:
HepG2 cells = experiment: apoptosis (Apoptotic evaluation 1) of siRNA-expressing HepG2 cells treated with 5-FU; format: cell-based, human; settings: for basal apoptosis: HepG2, 0 μmol/L 5-FU; for proportion of apoptosis in response to 5-FU: HepG2, 5-FU 10, 30 μmol/L, 60 hours, concentration-dependent
Method: Objective cells were treated with various anticancer agents, and then incubated with trypsin/EDTA to prepare cell suspensions. The cell suspensions were centrifuged and supernatants thereof were removed. Thereafter, the cell suspensions each were immobilized and stained with a solution of formaldehyde of 3.7%, Nonidet P40 of 0.5%, and 10 μg/mL of Hoechst33258 (Invitrogen) in PBS. […] The counting was performed with respect to at least 300 cells in one measurement.
Each type of the recombinant vectors was transfected into HepG2 cells for 18 hours in the same manner as in the above-described item (1). Each type of the transfection cells was treated with an anticancer agent “5-FU” having a predetermined concentration (0, 10, 30 μmol/L) for 60 hours. Then, the apoptosis (%) of the treated cells was examined according to “Apoptosis evaluation 1”. FIG. 1B is a graph showing apoptosis (%) in each type of the cells treated with 5-FU having a predetermined concentration (means±SD, n=3).

p53 [1] = experiment: p53 mRNA (Northern) and p53 protein (Western) expression in siRNA-expressing HepG2 cells; format: cell-based, human
Method: Western immunoblotting was performed according to Huez, I. et al. Mol. Endocrinol. 15 2197-2210 (2001) or Masuda, K., et al. PLoS Med. 5, e94 (2008). As a primary antibody, anti p53 antibody (“DO-1” or “FL-393”, Santa Cruz Biotechnology, Inc.), anti […] (“clone AC-15”, Sigma Chemical Co.), anti HA (“Y-11”, Santa Cruz Biotechnology Inc.), and anti L-VEGF (polyclonal anti L-VEGF antibody) mentioned in the Huez, I. et al. (2001) were used.
Total RNAs were extracted according to a guanidine thiocyanate method. Labeled cDNAs were produced using the following antisense primers, a klenow fragment (New England BioLabs, Inc., Inc.), and [α^−32P]dCTP, with the following cDNAs being templates. Thus obtained labeled cDNAs were used as probes for the Northern blotting.
Each type of the vectors was transfected into HepG2 cells for 18 hours in the same manner as in the above-described item (1). Then, the cells were treated in the presence of 5-FU (30 μmol/L) (+) or the absence of 5-FU (−). With respect to the cells treated for 8 hours, the expression level of p53 mRNA was analyzed by the Northern blotting. With respect to the cells treated for 12 hours, the expression level of p53 protein was analyzed by the Western immunoblotting. Analysis of protein also was performed with respect to β-actin protein that is an endogenous control (hereinafter, the same applies). […] In FIG. 1C, the first row from the top indicates expression of p53 mRNA, the second row indicates expression of gapdh mRNA, the third row indicates expression of p53 protein, and the fourth row indicates expression of 6-actin protein. Further, in FIG. 1C, “−” indicates the treatment in the absence of 5-FU and “+” indicates the treatment in the presence of 5-FU.

HCT116 cell strain = experiment: tumor volume of si-vegf #1 HCT116 cell strain xenografted to nude mice; format: in vivo; settings: si-vegf #1 cells vs si-Control cells, subcutaneous, n=5
Text: With regard to cells expressing siRNA against vegf, the effect thereof on the tumorigenicity in vivo was examined. Vegf siRNA #1 vectors expressing the above-described siRNA #1 were transfected into a HCT116 cell strain (wild-type p53) derived from human large bowel cancer, and the transfected cells were selected with an antibiotic blasticidin. The thus-obtained cell clone hereinafter is referred to as a si-vegf #1 cell strain. As a control, pcDNA6.2-GW/EmGFP-miR vectors (Invitrogen) to which a double-stranded oligonucleotide with a sequence (SEQ ID NO. 46: 5′-[…]-3′) having no homology to known vertebrate genes had been inserted were used (control siRNA vectors) as in the above. The […] cell strain was transfected with these control siRNA vectors in the same manner as in the above, and the transfected cells were selected with the antibiotic. The thus-obtained cell clone hereinafter is referred to as a si-Control cell strain. Then, the si-vegf #1 cell strain and the si-Control cell strain respectively were xenografted subcutaneously to femoral regions of nude mice, and the volume of the formed tumor was measured after the predetermined time (each n=5) in the same manner as in Example C2.

p53 [2] = experiment: endogenous p53 mRNA (quantitative RT-PCR) and p53 protein (Western) in siRNA-transfected HCT116 cells; format: cell-based, human
Method: From the results obtained in the above (1) and (2), it is interpreted that vegf IresRNA exerts an adverse influence in the p53 cancer suppression pathway. Thus, the expression level of endogenous p53 in cells transfected with vegf siRNA was examined. Specifically, the same transfected parent cells […] as in the above were treated for 8 hours in the presence of 80 lμmol/L of 5-FU (+) or in the absence of 5-FU (−), after which expression of p53 mRNA was analyzed by quantitative RT-PCR (means±SD, n=4). Also, the transfected cells were treated in the presence of 80 μmol/L of 5-FU (+) for a predetermined time (0, 8, 16, 24 hours), after which p53 protein was detected by the Western immunoblotting described above.

[3] = HepG2, absence of 5-FU, vs control cells
[4] = HepG2, presence of 5-FU (30 μmol/L), mRNA 8 hours, protein 12 hours
[5] = HCT116, absence of 5-FU, vs control
[6] = HCT116, further treated with 5-FU 80 μmol/L, 8 hours
[7] = HCT116, further treated with 5-FU 80 μmol/L, up to 24 hours

| Substance | basal apoptosis (HepG2 cells) | proportion of apoptosis in response to 5-FU (HepG2 cells) | expression of p53 mRNA and p53 protein (p53 [1]; [3]) | expression of p53 mRNA and p53 protein (p53 [1]; [4]) | tumor formation and tumor growth (HCT116 cell strain) | amount of the expressed p53 mRNA (p53 [2]; [5]) | amount of the expressed p53 mRNA (p53 [2]; [6]) | amount of the expressed p53 protein (p53 [2]; [7]) | amount of the expressed p53 protein (p53 [2]; HCT116, vs control) |
| --- | --- | --- | --- | --- | --- | --- | --- | --- | --- |
| siRNA #1: siRNA against vegf mRNA, SEQ ID NO 3/4, antisense complementary to bases 1062-1082 in SEQ ID NO. 1; expressed from pcDNA6.2-GW/EmGFP-miR vector (sense GCAUUGGACUUGCCUUGCUNN; antisense AGCAAGGCAAGGCUCCAAUGCNN) | not affected | increased markedly | increased | increased markedly | significant suppression | increased | increased markedly | increased markedly | increased |
| siRNA #2: siRNA against vegf mRNA, SEQ ID NO 5/6, antisense complementary to bases 1067-1087 in SEQ ID NO. 1; vector-expressed (sense GGAGCCUUGUUGCUGCUCUNN; antisense AGAGCAGCAAGGCAAGGCUCCNN) | not affected | increased markedly | increased | increased markedly | – | increased | increased markedly | increased markedly | increased |
